{"source": "patent US20070031514A1", "about": "“Use of isoindolinone derivatives as insecticides” (priority 2003, published 2007)"}
{"smiles": "Cc1cc(C(F)(C(F)(F)F)C(F)(F)F)ccc1N1C(=O)c2cccc(Cl)c2C1NC(C)(C)CS(C)(=O)=O", "note": "(stereo not shown) [Synthesis Example 2, 4-chloro-3-(2-methanesulfonyl-1,1-dimethylethylamino)-2-[2-methyl-4-(1,2,2,2-tetrafluoro-1-trifluoromethylethyl)phenyl]-2,3-dihydroisoindol-1-one]", "values": [{"measurement": "melting point", "result": "154 to 156", "unit": "°C"}]}
